Where two headings read alike, the source gives them in different places.
Legend:
[1] = Ivosidenib plasma PK after a single oral dose (day −3, dose escalation), LC-MS/MS, non-compartmental; assay type: in vivo; conditions: human; for AUC(0-t): read-out: AUC0-72h
Procedure: In the dose escalation portion, patients with 1) glioma and 2) non-glioma solid tumors were enrolled into sequential cohorts using a standard 3 + 3 design. […] At least 3 patients in each cohort also received a single dose 3 days prior to the start of multiple dosing (i.e., day −3).
(§1) These samples were optional for any further patients enrolled in these cohorts. Further blood samples were collected from all patients up to 10 h postdose on cycle 1, day 15 and cycle 2, day 1. A subset of samples was also used for evaluation of plasma 4β-hydroxycholesterol (4β-OHC) and 4β-OHC:cholesterol ratios. Blood samples for assessment of 2-HG only were also collected at screening.
(§2) Plasma ivosidenib was measured using two validated liquid chromatography-tandem mass spectrometry (LC-MS/MS) methods. The lower limit of quantification (LLOQ) was 1.00 ng/mL (low-range assay) or 50.0 ng/mL (high-range assay). […] Plasma 2-HG concentrations were measured using a qualified LC-MS/MS method with an LLOQ of 30.0 ng/mL. Concentrations of 2-HG in tumor biopsy samples were quantified using qualified LC-MS/MS methods with an LLOQ of 7.5 μg/g for brain tumor homogenate, 100 ng/g for liver tumor homogenate (low-range assay), and 30 μg/g for liver tumor homogenate (high-range assay). Plasma 4β-OHC and cholesterol were measured using a validated LC-MS/MS method. The LLOQ was 5 ng/mL for 4β-OHC and 25 μg/mL for cholesterol in human plasma.
(§3) PK parameters included area under the plasma concentration-time curve (AUC), maximum plasma concentration (Cmax), time to maximum plasma concentration (Tmax), terminal elimination half-life (t1/2), and apparent oral clearance at steady state (CLss/F). Accumulation ratio (Racc), based on Cmax and AUC, was also assessed during the dose escalation portion. PD (2-HG) parameters included baseline-effect value, area under the effect concentration-time curve (AUEC0-10h for the dose escalation portion, or AUEC0-8h for the dose escalation and expansion portions), percent change from baseline in AUEC (%BAUEC0-10h for the escalation portion, or %BAUEC0-8h for the dose escalation and expansion portions), average plasma concentration (Cavg), and percent inhibition for Cavg (%BCavg). For the dose escalation portion, the time-matched ratios of 4β-OHC to cholesterol were calculated.

[2] = Dose proportionality assessment of AUC and Cmax (power model); assay type: in vivo, human
Procedure: Dose proportionality after multiple dosing was tested using data from the QD dose regimens without the 100 mg BID dose group. To assess dose proportionality, the confidence interval (CI) for the slope was estimated, with each natural logarithm (ln)-transformed PK parameter as the dependent variable and the ln-transformed dose as the fixed effect. Analysis was performed using PK parameter estimates at day −3, cycle 1, day 15, and cycle 2, day 1. Dose proportionality was concluded if the 95% CI around the slope included 1 and if the slope was between 0.8 and 1.2 (inclusive).

plasma 2-HG = assay: Plasma 2-HG pharmacodynamics in patients with IDH1-mutant tumors; assay type: in vivo, human
Procedure: as §1
Additional predose samples were taken on cycle 1, day 8; cycle 1, day 15; cycle 3, day 1; and end of treatment.
as §2, §3

tumor 2-HG = assay: 2-HG in paired tumor biopsy samples; assay type: in vivo; conditions: Homo sapiens; 500 mg QD multiple doses, cycle 3 day 1 and cycle 7 day 1, paired biopsies, 21 patients, all tumor types; read-out: 2-HG inhibition in tumors
Procedure: Tumor biopsies were also collected for 2-HG assessment at screening, and at day 1 of cycle 3. Further biopsies were collected depending on the status of disease at cycle 7, day 1 or at any time that disease progression was suspected and/or at the end of treatment.
as §2

[3] = tested on: IDH1-mutant advanced solid tumors; conditions: Cmax,ss or AUCss vs best response, dose range tested
Description: A total of 6 adverse event categories, based on both laboratory abnormalities and reported adverse events, were included in the exposure-response analyses. […] The efficacy endpoint of interest was best response. The exposure-response analyses used modeled nominal steady-state Cmax (Cmax,ss) or AUC (AUCss) as predictors for safety and efficacy variables in the two subgroups of tumor types described earlier.

[4] = design: method as in Agios data on file; conditions: ref Agios data on file; cited from earlier work
[5] = po, 100 mg, glioma, single oral 100 mg, day −3, geometric mean (geometric CV%)
[6] = po, 100 mg, non-glioma solid tumors, single oral 100 mg, day −3, geometric mean (geometric CV%)
[7] = po, 300 mg, glioma, single oral 300 mg, day −3, geometric mean (geometric CV%)
[8] = po, 300 mg, non-glioma solid tumors, single oral 300 mg, day −3, geometric mean (geometric CV%)
[9] = po, 400 mg, non-glioma solid tumors, single oral 400 mg, day −3, geometric mean (geometric CV%)
[10] = po, 500 mg, glioma, single oral 500 mg, day −3, geometric mean (geometric CV%)
[11] = po, 500 mg, non-glioma solid tumors, single oral 500 mg, day −3, geometric mean (geometric CV%)
[12] = po, 600 mg, glioma, single oral 600 mg, day −3, geometric mean (geometric CV%)
[13] = po, 800 mg, non-glioma solid tumors, single oral 800 mg, day −3, geometric mean (geometric CV%)
[14] = po, 900 mg, glioma, single oral 900 mg, day −3, geometric mean (geometric CV%)
[15] = po, 1200 mg, non-glioma solid tumors, single oral 1200 mg, day −3, geometric mean (geometric CV%)

N#Cc1ccnc(N2C(=O)CC[C@H]2C(=O)N(c2cncc(F)c2)[C@H](C(=O)NC2CC(F)(F)C2)c2ccccc2Cl)c1 [ivosidenib]
half-life ([1]; oral, 500 mg, single dose of 500 mg, patients with cholangiocarcinoma/chondrosarcoma, read-out: mean t1/2 (converted)): 64 h
half-life ([1]; oral, 500 mg, single dose of 500 mg, patients with glioma, read-out: mean t1/2 (converted)): 56 h
half-life ([1]; oral, after single dose, range of means across doses and tumor types, read-out: terminal half-life (mean)): 40 to 102 h
Tmax ([1]; oral, single dose day −3, range across all tumor types, read-out: median Tmax): 2 to 6 h
half-life ([1]; oral, single dose, patients with glioma, range across doses, read-out: mean t1/2 (converted)): 40 to 56 h
half-life ([1]; oral, single dose, patients with non-glioma solid tumors, range across doses, read-out: mean t1/2 (converted)): 62 to 102 h
Cmax [1, 5]: 1270 ng/mL
AUC(0-t) [1, 5]: 32800 ng·h/mL
half-life ([1]; po, 100 mg, glioma, single oral 100 mg, day −3, geometric mean (geometric CV%), read-out: t1/2 (converted)): 55.5 h
Tmax ([1]; po, 100 mg, glioma, single oral 100 mg, day −3, median (minimum; maximum), read-out: Tmax): 2.03 h
Cmax [1, 6]: 1400 ng/mL
AUC(0-t) [1, 6]: 34800 ng·h/mL
half-life ([1]; po, 100 mg, non-glioma solid tumors, single oral 100 mg, day −3, geometric mean (geometric CV%), read-out: t1/2 (converted)): 102 h
Tmax ([1]; po, 100 mg, non-glioma solid tumors, single oral 100 mg, day −3, median (minimum; maximum), read-out: Tmax): 3 h
Cmax [1, 7]: 2300 ng/mL
AUC(0-t) [1, 7]: 62500 ng·h/mL
half-life ([1]; po, 300 mg, glioma, single oral 300 mg, day −3, geometric mean (geometric CV%), read-out: t1/2 (converted)): 53.6 h
Tmax ([1]; po, 300 mg, glioma, single oral 300 mg, day −3, median (minimum; maximum), read-out: Tmax): 4 h
Cmax [1, 8]: 2350 ng/mL
AUC(0-t) [1, 8]: 71600 ng·h/mL
half-life ([1]; po, 300 mg, non-glioma solid tumors, single oral 300 mg, day −3, geometric mean (geometric CV%), read-out: t1/2 (converted)): 77.9 h
Tmax ([1]; po, 300 mg, non-glioma solid tumors, single oral 300 mg, day −3, median (minimum; maximum), read-out: Tmax): 4.17 h
Cmax [1, 9]: 4230 ng/mL
AUC(0-t) [1, 9]: 141000 ng·h/mL
half-life ([1]; po, 400 mg, non-glioma solid tumors, single oral 400 mg, day −3, geometric mean (geometric CV%), read-out: t1/2 (converted)): 77.3 h
Tmax ([1]; po, 400 mg, non-glioma solid tumors, single oral 400 mg, day −3, median (minimum; maximum), read-out: Tmax): 3 h
Cmax [1, 10]: 2370 ng/mL
AUC(0-t) [1, 10]: 81900 ng·h/mL
half-life ([1]; po, 500 mg, glioma, single oral 500 mg, day −3, geometric mean (geometric CV%), read-out: t1/2 (converted)): 56.4 h
Tmax ([1]; po, 500 mg, glioma, single oral 500 mg, day −3, median (minimum; maximum), read-out: Tmax): 3.54 h
Cmax [1, 11]: 3660 ng/mL
AUC(0-t) [1, 11]: 112000 ng·h/mL
half-life ([1]; po, 500 mg, non-glioma solid tumors, single oral 500 mg, day −3, geometric mean (geometric CV%), read-out: t1/2 (converted)): 64.3 h
Tmax ([1]; po, 500 mg, non-glioma solid tumors, single oral 500 mg, day −3, median (minimum; maximum), read-out: Tmax): 2.92 h
Cmax [1, 12]: 3380 ng/mL
AUC(0-t) [1, 12]: 77700 ng·h/mL
half-life ([1]; po, 600 mg, glioma, single oral 600 mg, day −3, geometric mean (geometric CV%), read-out: t1/2 (converted)): 39.5 h
Tmax ([1]; po, 600 mg, glioma, single oral 600 mg, day −3, median (minimum; maximum), read-out: Tmax): 3 h
Cmax [1, 13]: 6190 ng/mL
AUC(0-t) [1, 13]: 179000 ng·h/mL
half-life ([1]; po, 800 mg, non-glioma solid tumors, single oral 800 mg, day −3, geometric mean (geometric CV%), read-out: t1/2 (converted)): 62.8 h
Tmax ([1]; po, 800 mg, non-glioma solid tumors, single oral 800 mg, day −3, median (minimum; maximum), read-out: Tmax): 3 h
Cmax [1, 14]: 3440 ng/mL
AUC(0-t) [1, 14]: 98600 ng·h/mL
half-life ([1]; po, 900 mg, glioma, single oral 900 mg, day −3, geometric mean (geometric CV%), read-out: t1/2 (converted)): 54.3 h
Tmax ([1]; po, 900 mg, glioma, single oral 900 mg, day −3, median (minimum; maximum), read-out: Tmax): 2.55 h
Cmax [1, 15]: 5990 ng/mL
AUC(0-t) [1, 15]: 212000 ng·h/mL
half-life ([1]; po, 1200 mg, non-glioma solid tumors, single oral 1200 mg, day −3, geometric mean (geometric CV%), read-out: t1/2 (converted)): 61.6 h
Tmax ([1]; po, 1200 mg, non-glioma solid tumors, single oral 1200 mg, day −3, median (minimum; maximum), read-out: Tmax): 6 h
increase in ivosidenib exposure for a doubling of dose ([2]; patients with glioma): ~40%
increase in ivosidenib exposure for a doubling of dose ([2]; patients with non-glioma solid tumors): ~70%
plasma 2-HG reduction (plasma 2-HG; after multiple doses, patients with cholangiocarcinoma or chondrosarcoma): up to 98%
plasma 2-HG inhibition compared with baseline (plasma 2-HG; after one week of continuous dosing, cholangiocarcinoma and chondrosarcoma): up to 98%
plasma 2-HG mean Cavg percent inhibition (BCavg%) (plasma 2-HG; cholangiocarcinoma, 500 mg multiple dose, cycle 1 day 15): 79%
plasma 2-HG mean Cavg percent inhibition (BCavg%) (plasma 2-HG; cholangiocarcinoma, 500 mg multiple dose, cycle 2 day 1): 80%
plasma 2-HG mean Cavg percent inhibition (BCavg%) (plasma 2-HG; cholangiocarcinoma, single dose, 500 mg): 46%
plasma 2-HG mean Cavg percent inhibition (BCavg%) (plasma 2-HG; chondrosarcoma, 500 mg multiple dose, cycle 1 day 15): 54%
plasma 2-HG mean Cavg percent inhibition (BCavg%) (plasma 2-HG; chondrosarcoma, 500 mg multiple dose, cycle 2 day 1): 59%
plasma 2-HG mean Cavg percent inhibition (BCavg%) (plasma 2-HG; chondrosarcoma, single dose, 500 mg): 30%
inhibition at 500 mg (tumor 2-HG): ≤ 100%
exposure-efficacy relationship [3]: flat
FDA Biopharmaceutical Classification System class [4]: BCS Class II
permeability (BCS) [4]: high permeability
solubility (BCS) [4]: low solubility
